The values that follow come from US4250259A, “Microbiological production of ketones from C3 -C6 secondary alcohols” (priority 1979, dated 1981).

Structures are written as SMILES. Like-named read-outs stand apart in the source and are kept apart here.

Assay [1] addresses particulate P(40) fraction (Methylococcus capsulatus, UniProt G1UBD1+Q603F1+Q607G3). As to the kind of experiment: hydroxylation of n-alkanes to secondary alcohols by particulate P(40) fraction (Table XVII). In kind it is biochemical, Methylococcus capsulatus (Texas, ATCC 19,069). From the text: (§1) Both cell suspensions (particulate fraction) and cell-free particulate fraction of methane-grown methylotroph microorganisms are capable of catalyzing the conversion of C3 -C6 n-alkanes to the corresponding alcohols including secondary alcohols. The conditions for preparing the cell suspensions or the cell-free particulate fractions from methane-grown methylotroph microorganisms is the same as described above. The cell-free particulate fraction requires the presence of oxygen and NADH as an electron donor. […] Tables XVI and XVII show the conversion of C3 -C6 n-alkanes to the corresponding secondary alcohols using cell suspensions and cell-free particulate fractions, respectively, of methane-grown methylotroph microorganisms.
(§2) ^(a) Particulate P(40) fraction was prepared as follows:
(§3) Cellsuspensions at 4° C. were disintegrated through a French
(§4) Pressure cell and centrifuged at 4000 × g. for 15 min. to remove
(§5) unbroken bacteria. The supernatant solution was then centrifuged at 40,00
(§6) × g. for 30 min. at 4° C., yielding the particulate P(40) an
(§7) soluble S(40) fractions. The products were identified by gas
(§8) chromatography and cochromatography with authentic standard.

Assay [2] relates to Methylococcus capsulatus Texas (ATCC 19069). As to the kind of experiment: n-alkanes to methyl ketones by resting cell suspensions (Table I). The conditions noted are these: cells grown on methane; 30° C. The class given is cell-based. The procedure:
(§9) The pH of the nutrient medium was adjusted to 7.0 by the addition of acid or base and 50 ml. samples of the nutrient medium were charged into a plurality of 300 ml. shaker flasks. […] The isolates had been maintained on methanol (0.4% V/V) agar plates or on agar plates under an atmosphere of methane and air having a 1:1 V/V gas ratio which had been transferred every two weeks. For growth on methanol, the medium was supplemented with 0.4% methanol. For growth on methane, the gaseous phase of the inoculated flasks was replaced with a gas mixture comprised of methane and air having a ratio of 1:1 on a V/V basis. The inoculated flasks were sealed air-tight and were incubated on a rotary shaker of orbital radius 2.5 cm. at 250 rpm and at 30° C. for two days until turbidity in the medium had developed. The cells were harvested by centrifugation at 10,000×g. at 4° C. for 30 minutes. The cell pellet was washed twice with a 0.05 M phosphate buffer at a pH of 7.0 (containing 0.02 M MgCl2). The washed cells were then suspended in a 0.05 M phosphate buffer at pH 7.0.
(§10) A 0.5 ml. sample of each washed cell suspension (2 mg. cells) was put into 10 ml. vials at 4° C. which were sealed with a rubber cap. The gaseous phase of the vials was removed with vacuum and then was replaced with a gas mixture of the substrate reactant (i.e., alkane or secondary alcohol) and oxygen at a 1:1 V/V ratio. (In the case of a liquid substrate, i.e., secondary alcohol, 10 μl of the substrate was put in the 10 ml. vials). The vials were then incubated at 30° C. on a rotary shaker at 300 rpm. Samples of product (1-3 μl) were withdrawn periodically with a microsyringe and the products were analyzed by gas chromatography (ionization flame detector column).

Assay [3] concerns Methylobacter capsulatus Y (NRRL B-11,201). The description is as above. The class given is cell-based. The conditions noted are these: cells grown on methane; 30° C. The procedure:
as §9, §10

The test system of assay [4] is Methylomonas methanica SI (NRRL B-11,199). Described as above. The note with it: cells grown on methane; 30° C. In kind it is cell-based. The procedure: as §9, §10
For assay [5], the system named is Methylocystis parvus OBBP (NRRL B-11,198). The description is as above. The note with it: cells grown on methane; 30° C. The class given is cell-based. The procedure:
as §9, §10

The test system of assay [6] is Methylosinus trichosporium OB3b (NRRL B-11,196). The assay is described as above. The class given is cell-based. The conditions noted are these: cells grown on methane; 30° C. The procedure:
as §9, §10

The subject of assay [7] is Methylomonas albus BG8 (NRRL B-11,200). Described as above. The note with it: cells grown on methane; 30° C. The class given is cell-based. On the procedure: as §9, §10
The test system of assay [8] is Methylobacterium organophilum XX. Described as above. In kind it is cell-based. The conditions noted are these: cells grown on methane; 30° C. On the procedure: as §9, §10
Assay [9] deals with Methylosinus sporium 5 (NRRL B-11,197). The description is as above. In kind it is cell-based. The conditions noted are these: cells grown on methane; 30° C. The procedure: as §9, §10
In assay [10] the target is particulate P(40) fraction (Methylosinus trichosporium, UniProt Q50541+Q9KX50+Q9KX51). As to the kind of experiment: hydroxylation of n-alkanes to secondary alcohols by particulate P(40) fraction (Table XVII). In kind it is biochemical, Methylosinus sp. (CRL-15, NRRL-B-11,202).
Description: as §1, §2, §3, §4, §5, §6, §7, §8
Target sequence in this assay (Q9KX50 40-431): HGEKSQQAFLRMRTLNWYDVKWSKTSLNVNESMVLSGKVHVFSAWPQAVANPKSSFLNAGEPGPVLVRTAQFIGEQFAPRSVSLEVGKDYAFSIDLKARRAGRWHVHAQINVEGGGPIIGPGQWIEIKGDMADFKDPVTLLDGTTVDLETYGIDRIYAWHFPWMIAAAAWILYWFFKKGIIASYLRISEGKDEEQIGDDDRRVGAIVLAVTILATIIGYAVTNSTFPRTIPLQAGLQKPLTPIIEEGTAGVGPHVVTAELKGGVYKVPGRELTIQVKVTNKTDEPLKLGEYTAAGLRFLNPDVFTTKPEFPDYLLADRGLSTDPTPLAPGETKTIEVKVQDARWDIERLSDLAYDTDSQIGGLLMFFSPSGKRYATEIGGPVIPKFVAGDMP
Target sequence in this assay (Q50541 1-252): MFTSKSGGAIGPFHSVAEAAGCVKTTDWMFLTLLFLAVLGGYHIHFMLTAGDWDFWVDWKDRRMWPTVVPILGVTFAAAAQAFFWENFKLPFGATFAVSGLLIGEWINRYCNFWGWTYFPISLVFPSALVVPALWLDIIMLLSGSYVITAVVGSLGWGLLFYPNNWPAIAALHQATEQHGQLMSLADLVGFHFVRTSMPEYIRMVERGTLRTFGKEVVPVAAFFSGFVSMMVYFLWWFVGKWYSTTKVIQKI
Target sequence in this assay (Q9KX51 1-256): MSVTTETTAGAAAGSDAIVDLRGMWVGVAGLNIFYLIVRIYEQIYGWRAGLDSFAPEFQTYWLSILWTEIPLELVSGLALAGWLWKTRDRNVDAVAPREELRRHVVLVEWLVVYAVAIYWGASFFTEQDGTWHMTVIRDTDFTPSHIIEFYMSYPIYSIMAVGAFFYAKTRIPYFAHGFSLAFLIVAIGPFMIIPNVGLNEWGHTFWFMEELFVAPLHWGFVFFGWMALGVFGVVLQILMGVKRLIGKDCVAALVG

Assay [11] concerns particulate P(40) fraction. The description is as above. In kind it is biochemical, Methylobacterium sp. (CRL-26, NRRL-B-11,222).
Description: as §1, §2, §3, §4, §5, §6, §7, §8

For assay [12], the system named is Methylosinus trichosporium OB3b NRRL B-11,196. As to the kind of experiment: conversion of n-alkanes to oxidation products by cell suspensions (Table XVIII). The class given is cell-based. The conditions noted are these: methane-grown cell suspension; pH 7.0.
Description: (§12) ^(a) Cell-suspensions of methanegrown methylotroph microorganisms
(§13) indicated in 0.15 M phosphate buffer, pH 7.0 incubated in the alkanes as
(§14) indicated at 3° C. The oxidation products were determined by g.l.c
Assay [13] concerns Methylosinus sp. (CRL-15, NRRL-B-11,202). As to the kind of experiment: n-alkanes to secondary alcohols by cell suspensions (Table XVI). The class given is cell-based. The note with it: Growth Substrate Methane.
Description: as §1
(§11) ^(a) The product secondary alcohols were identified and estimated by […]

The test system of assay [14] is Methylobacter capsulatus (Y, NRRL-B-11,201). Described as above. In kind it is cell-based. The conditions noted are these: Growth Substrate Methane.
Description: as §1, §11

Assay [15] has as its system Methylomonas sp. (CRL-17, NRRL-B-11,209). Described as above. The class given is cell-based. The note with it: Growth Substrate Methane.
Description: as §1, §11

The test system of assay [16] is Methylobacterium sp. (CRL-26, NRRL-B-11,208). The assay is described as above. The class given is cell-based. The conditions noted are these: Growth Substrate Methane.
Description: as §1, §11

For assay [17], the system named is Methylococcus capsulatus (Texas, ATCC 19,069). The assay is described as above. In kind it is cell-based. The conditions noted are these: Growth Substrate Methane.
Description: as §1, §11

Assay [18] concerns Methylosinus trichosporium (OB3b, NRRL-B-11,196). The description is as above. In kind it is cell-based. The conditions noted are these: Growth Substrate Methane.
Description: as §1, §11

In assay [19] the target is particulate P(40) fraction (Methylosinus trichosporium, UniProt Q50541+Q9KX50+Q9KX51). As to the kind of experiment: hydroxylation of n-alkanes to secondary alcohols by particulate P(40) fraction (Table XVII). In kind it is biochemical, Methylosinus trichosporium (OB3b, NRRL-B-11,196).
Description: as §1, §2, §3, §4, §5, §6, §7, §8
Target sequence in this assay (Q50541 1-252): as the sequence (Q50541 1-252) above
Target sequence in this assay (Q9KX50 40-431): as the sequence (Q9KX50 40-431) above
Target sequence in this assay (Q9KX51 1-256): as the sequence (Q9KX51 1-256) above

For assay [20], the system named is Methylococcus capsulatus CRL M1 NRRL B-11,219. As to the kind of experiment: conversion of n-alkanes to oxidation products by cell suspensions (Table XVIII). The conditions noted are these: methane-grown cell suspension; pH 7.0. In kind it is cell-based.
Description: as §12, §13, §14

particulate P(40) fraction (Methylococcus capsulatus, UniProt G1UBD1+Q603F1+Q607G3), sequence (Q607G3 whole entry): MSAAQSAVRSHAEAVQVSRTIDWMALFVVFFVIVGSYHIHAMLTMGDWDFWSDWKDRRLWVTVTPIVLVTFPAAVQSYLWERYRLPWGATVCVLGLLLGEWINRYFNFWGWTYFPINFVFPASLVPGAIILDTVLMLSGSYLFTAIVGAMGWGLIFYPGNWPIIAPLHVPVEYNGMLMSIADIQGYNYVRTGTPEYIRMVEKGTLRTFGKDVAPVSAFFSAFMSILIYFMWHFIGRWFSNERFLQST
particulate P(40) fraction (Methylococcus capsulatus, UniProt G1UBD1+Q603F1+Q607G3), sequence (G1UBD1 33-414): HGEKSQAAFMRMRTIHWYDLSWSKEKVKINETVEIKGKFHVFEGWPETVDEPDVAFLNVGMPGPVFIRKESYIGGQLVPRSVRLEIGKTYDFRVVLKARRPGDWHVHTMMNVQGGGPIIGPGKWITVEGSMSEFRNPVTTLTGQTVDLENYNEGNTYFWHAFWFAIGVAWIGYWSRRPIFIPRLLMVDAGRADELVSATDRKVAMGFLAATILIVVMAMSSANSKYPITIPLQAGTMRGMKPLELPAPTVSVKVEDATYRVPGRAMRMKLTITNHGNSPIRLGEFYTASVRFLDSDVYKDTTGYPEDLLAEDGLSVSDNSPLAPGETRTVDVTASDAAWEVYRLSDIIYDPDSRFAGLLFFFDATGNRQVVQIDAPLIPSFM
particulate P(40) fraction (Methylococcus capsulatus, UniProt G1UBD1+Q603F1+Q607G3), sequence (Q603F1 1-260): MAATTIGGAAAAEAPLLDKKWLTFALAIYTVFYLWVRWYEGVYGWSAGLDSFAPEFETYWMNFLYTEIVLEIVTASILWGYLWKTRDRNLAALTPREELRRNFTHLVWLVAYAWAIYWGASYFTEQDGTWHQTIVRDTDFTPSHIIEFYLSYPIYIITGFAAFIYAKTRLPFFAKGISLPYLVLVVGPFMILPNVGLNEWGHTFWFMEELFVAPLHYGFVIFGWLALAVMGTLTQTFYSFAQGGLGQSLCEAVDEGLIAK

Turning to `CCCC` [n-Butane, n-butane], the “Conversion Rate, n-alkane to corresponding secondary alcohol” value (shortened to “Conversion Rate, n-alkane”) was 0.92 μmoles/hr/2.0mg. of protein in [1]; 0.89 μmoles/hr/2.0mg. of protein in [10]; 0.61 μmoles/hr/2.0mg. of protein in assay [11]; 1.2 μmoles/hr/^5 mg. protein in assay [13]; 0.09 μmoles/hr/^5 mg. protein in [14]; 1.2 μmoles/hr/^5 mg. protein in assay [15]. Further, the “Conversion Rate, n-alkane” value in assay [16] was 0.80 μmoles/hr/^5 mg. protein; in assay [17] it was 1.0 μmoles/hr/^5 mg. protein; in assay [18], 1.5 μmoles/hr/^5 mg. protein; in [19], 0.79 μmoles/hr/2.0mg. of protein. Also, the “Conversion Rates, n-alkane to corresponding methyl ketone” value (“Conversion Rates, n-alkane” for short) came to 0.52 μmoles/hr/mg protein in assay [2]; 1.1 μmoles/hr/mg protein in assay [3]; 0.30 μmoles/hr/mg protein in assay [4]; 1.0 μmoles/hr/mg protein in assay [5]; 1.2 μmoles/hr/mg protein in assay [6]; 0.60 μmoles/hr/mg protein in [7]. For the same compound, the figures for the “Conversion Rates, n-alkane” value in [8] and in assay [9] were 2.0 μmoles/hr/mg protein and 0.58 μmoles/hr/mg protein, respectively. In addition, the figures for the “Conversion Rate, product 1-Butanol” value in assay [12] and in assay [20] were 0.3 μmoles/hr./mg./protein and 0.4 μmoles/hr./mg./protein, respectively. Further, the “Conversion Rate, product 2-Butanol” value in assay [12] came to 0.4 μmoles/hr./mg./protein; in assay [20], 0.5 μmoles/hr./mg./protein. Besides, the “Conversion Rate, product 2-Butanone” value in assay [12] worked out at 0.1 μmoles/hr./mg./protein; in assay [20], 0.2 μmoles/hr./mg./protein. The “Conversion Rate, product n-butanol” value in [12] was 0.1 μmoles/hr./mg./protein; in assay [20] it was 0.2 μmoles/hr./mg./protein.
For `CCCCC` [n-Pentane, n-pentane], the “Conversion Rates, n-alkane” value in assay [2] worked out at 0.42 μmoles/hr/mg protein; in assay [3], 0.63 μmoles/hr/mg protein; in assay [4], 0.28 μmoles/hr/mg protein; in assay [5], 0.51 μmoles/hr/mg protein; in [6], 0.72 μmoles/hr/mg protein; in assay [8], 0.58 μmoles/hr/mg protein. In addition, the “Conversion Rate, n-alkane” value is 0.01 μmoles/hr/^5 mg. protein in [16], 0.032 μmoles/hr/^5 mg. protein in assay [17] and 0.06 μmoles/hr/^5 mg. protein in assay [18].
For the compound `CCC` [n-Propane, n-propane], the “Conversion Rate, n-alkane” value in assay [1] is on record as 1.2 μmoles/hr/2.0mg. of protein; in assay [10], 1.5 μmoles/hr/2.0mg. of protein; in assay [11], 1.0 μmoles/hr/2.0mg. of protein; in assay [13], 2.1 μmoles/hr/^5 mg. protein; in assay [14] it was 0.20 μmoles/hr/^5 mg. protein; in assay [15], 1.6 μmoles/hr/^5 mg. protein. For the same compound, the “Conversion Rate, n-alkane” value is 1.4 μmoles/hr/^5 mg. protein in assay [16], 1.1 μmoles/hr/^5 mg. protein in [17], 2.5 μmoles/hr/^5 mg. protein in assay [18] and 1.32 μmoles/hr/2.0mg. of protein in [19]. Moreover, the “Conversion Rates, n-alkane” value in [2] stood at 1.2 μmoles/hr/mg protein; in assay [3], 1.6 μmoles/hr/mg protein; in assay [4], 2.5 μmoles/hr/mg protein; in assay [5] it was 1.8 μmoles/hr/mg protein; in assay [6] it was 1.5 μmoles/hr/mg protein; in assay [7] it was 2.7 μmoles/hr/mg protein. In addition, the “Conversion Rates, n-alkane” value in assay [8] was 2.8 μmoles/hr/mg protein; in [9] it was 2.1 μmoles/hr/mg protein. In addition, the “Conversion Rate, product 1-Propanol” value was 0.4 μmoles/hr./mg./protein in assay [12] and 0.5 μmoles/hr./mg./protein in [20]. In addition, the “Conversion Rate, product 2-Propanol” value in [12] is listed as 0.6 μmoles/hr./mg./protein; in [20], 0.7 μmoles/hr./mg./protein. Also, the “Conversion Rate, product Acetone” value was 0.2 μmoles/hr./mg./protein in [12] and 0.3 μmoles/hr./mg./protein in assay [20]. Further, the “Conversion Rate, product Propanol” value in assay [12] turned out to be 0.1 μmoles/hr./mg./protein; in assay [20], 0.2 μmoles/hr./mg./protein.
